Where a name gives a salt, the structure may show the parent alone.
Experiments:
MCF7 = test: Cytotoxicity on MCF7 monolayers (MTT assay); details: Homo sapiens, MCF7, 72 h, read-out: Mean of % cytotoxicity ± SD
Protocol: Eighty pre-plated synthetic chemical compounds were screened on two human cell lines: MCF7 (ATCC® HTB-22™), a Caucasian breast adenocarcinoma model, and hTERT-RPE-1 (ATCC® CRL-4000™), a normal retinal epithelial cell line immortalized by hTERT telomerase. […] The cells were cultured in DMEM-F12 medium supplemented with L-glutamine and 10% fetal bovine serum, all were purchase from Biowest (Biotechnology company in Nuaillé, France), and maintained in a controlled incubator environment set at 37 °C with 5% CO2 and 95% humidity.
MCF7 cells were seeded in flat-bottom 96-well plates with a concentration of 20,000 cells/well, and were left overnight. The compounds were tested at a final concentration of 50 µM. Doxorubicin was used as a positive control and 0.5% DMSO as a negative control. The treatment duration was 72 h. The cytotoxicity was then assessed using the MTT assay, as described by Mosmann[43].

MCF7 3D spheroids = test: Cytotoxicity on MCF7 3D multicellular spheroids (acid phosphatase method); details: Homo sapiens; for cytotoxicity at 50 µM: MCF7, 120 h, read-out: Mean of % cytotoxicity ± S.D

Compound	cytotoxicity at 50 µM (MCF7)	cytotoxicity at 50 µM (MCF7 3D spheroids)	inhibition at 50 µM (MCF7 3D spheroids; MCF7, read-out: % inhibition 3D)
NNC(=O)Cc1ccccc1 [B10, 2-phenylacetohydrazide]	0%	48.2 ± 0.23%	–
O=[N+]([O-])c1cc(C(F)(F)F)ccc1-n1ccc(C(F)(F)F)n1 [B11, 1-[2-nitro-4-(trifluoromethyl)phenyl]-3-(trifluoromethyl)-1H-pyrazole]	0%	30.5 ± 0.53%	–
Cn1c(=NN=c2oc3ccccc3n2C)oc2ccccc21 [C03, 1,2-di(3-methyl-2,3-dihydro-1,3-benzoxazol-2-yliden)hydrazine]	86.6 ± 9.3%	3.4 ± 0.17%	–
Cn1ccnc1SCC(=O)Nc1ccc(C(C)(C)C)cc1 [C04, N1-[4-(tert-butyl)phenyl]-2-[(1-methyl-1H-imidazol-2-yl)thio]acetamide]	14.5 ± 0.58%	28.6 ± 0.76%	–
C(=Cc1ccco1)C1=NN(Cc2ccccc2)CC1 [C05, 1-benzyl-3-[2-(2-furyl)vinyl]-4,5-dihydro-1H-pyrazole hydrochloride]	62.9 ± 3.8%	48.6 ± 2%	–
COc1ccc(C(=O)NCc2ccco2)cc1OC [C06, N-(2-furylmethyl)-3,4-dimethoxybenzamide]	0%	35.8 ± 0.23%	–
Cc1cc(C)n(-c2ccc(S(N)(=O)=O)cc2)n1 [C07, 4-(3,5-dimethyl-1H-pyrazol-1-yl)benzene-1-sulfonamide]	0%	55.4 ± 2.3%	–
CC(=O)c1ccccc1OC(=O)c1ccc([N+](=O)[O-])o1 [C08, 2-acetylphenyl 5-nitro-2-furoate]	66.3 ± 4.3%	30.8 ± 1.3%	–
CC(=O)Nc1ccc(NC(=O)c2nccnc2C(=O)O)cn1 [C09, 3-({[6-(acetylamino)-3-pyridinyl]amino}carbonyl)-2-pyrazinecarboxylic acid]	9.9 ± 1.1%	-23.4 ± 0.5%	-23%
O=C(SCc1cccc(C(F)(F)F)c1)c1ccc(Cl)c(Cl)c1 [C10, S-[3-(trifluoromethyl)benzyl] 3,4-dichlorobenzene carbothioate]	100 ± 0.003%	33.8 ± 1.6%	–
O=C(NNC(=O)c1ccc(OC(F)(F)F)cc1)c1ccc(Cl)cc1 [C11, N'1-(4-chlorobenzoyl)-4-(trifluoromethoxy)benzene-1-carbohydrazide]	83.1 ± 1.17%	66.5 ± 0.24%	–
O=[N+]([O-])c1ccc2nc(-c3ccccc3)c(-c3ccccc3)nc2c1 [D02, 6-nitro-2,3-diphenylquinoxaline]	5.2 ± 0.18%	-8 ± 0.003%	–
O=C(Nc1cccc(-c2ncon2)c1)C(Cl)(Cl)Cl [D03, 2,2,2-trichloro-N-[3-(1,2,4-oxadiazol-3-yl)phenyl]acetamide]	11.1 ± 0.9%	23.5 ± 0.17%	–
Cc1c(C)c(C)c2[nH]c(-c3ccc4c(c3)OCO4)nc2c1C [D04, 2-(1,3-benzodioxol-5-yl)-4,5,6,7-tetramethyl-1H-benzimidazole]	100 ± 0.003%	67.9 ± 0.5%	–
CC(=O)Nc1ccc(-c2ccccc2)cc1 [D05, N-[1,1'-biphenyl]-4-ylacetamide]	49.7 ± 4.1%	50.9 ± 2.4%	–
COc1c(Cl)cc([N+](=O)[O-])c(OC)c1C(=O)O [D06, 3-chloro-2,6-dimethoxy-5-nitrobenzoic acid]	10.4 ± 0.6%	40.8 ± 2.1%	–
COc1cc(-n2c(S)nnc2CCc2nc(-c3ccc(Cl)cc3)no2)c(OC)cc1Cl [D07, 4-(4-chloro-2,5-dimethoxyphenyl)-5-{2-[3-(4-chlorophenyl)-1,2,4-oxadiazol-5-yl]ethyl}-4H-1,2,4-triazole-3-thiol]	88.7 ± 0.23%	50.1 ± 2.3%	–
Cc1ccc(OCC(O)CN2CCC(C(N)=O)CC2)c([N+](=O)[O-])c1 (stereo not shown) [D09, 1-[2-hydroxy-3-(4-methyl-2-nitrophenoxy)propyl]piperidine-4-carboxamide]	7.6 ± 0.2%	50 ± 0.35%	–
